Data reported in ChEMBL document CHEMBL1139061, “Ac2-DPD, the bis-(O)-acetylated derivative of 4,5-dihydroxy-2,3-pentanedione (DPD) is a convenient stable precursor of bacterial quorum sensing autoinducer AI-2” (Bioorg Med Chem Lett, 2007).
The source made the active and inactive calls. The rule behind the calls is not given here.

Experiments:
Vibrio harveyi = test: Induction of bioluminescence in Vibrio harveyi after 4 hrs by luminescence reporter assay; conditions: read-out: IC50 (the source's name)
Bacillus cereus = test: Inhibition of biofilm formation in Bacillus cereus at 8 uM after 24 hrs by 96-well polyvinylchloride microtiter plate assay; type: functional, organism-based
Salmonella typhimurium = test: Induction of beta-galactosidase production in Salmonella enterica Typhimurium MET844 after 4 hrs by beta-Gal reporter gene assay; type: functional, organism-based; conditions: Salmonella enterica subsp. enterica serovar Typhimurium

EC50 (Vibrio harveyi) | Activity (Salmonella typhimurium) | SMILES | Activity (Bacillus cereus)
2.4 µM |  | CC(=O)OCC(OC(C)=O)C(=O)C(C)=O (stereo unspecified) | 
 |  | CC(=O)C(=O)[C@@H](O)CO | Active
 | Active | CC(=O)C(=O)C(O)CO (stereo unspecified) | 
2.1 µM | Active | CC(=O)OC[C@H](OC(C)=O)C(=O)C(C)=O | Active
